Measurements reported in ChEMBL document CHEMBL5046231, “Modulation of Naturally Occurring Linear Dipeptide Chirality to Reduce the Affinity for Oligopeptide Transporter 1 and Increase Intestinal Stability for an Enhanced Colon-Targeting Effect in the Treatment of Inflammatory Bowel Disease: An Application of trans-4-l-Hydroxyprolyl-l-serine” (J Med Chem, 2022).
Activity calls are given as the source filed them. The rule behind the calls is not given here.

Key:
Mus musculus [1] = assay: Antiinflammatory activity in DSS-induced C57BL/6 mouse model of colitis assessed as decrease in IL-1beta level 25 to 100 mg/kg, po administered via gavage twice a day for 10 days; type: functional, organism-based; details: dose 25-100 mg/kg, time 10.0 day
Mus musculus [2] = assay: Anti-colitis activity against DSS-induced colitis in C57BL/6 mouse model assessed as assessed as recovery of body weight at 25 mg/kg, po administered via gavage twice daily for 10 days; type: functional, organism-based; details: time 10.0 day
Mus musculus [3] = assay: Anti-colitis activity against DSS-induced C57BL/6 mouse model of colitis assessed as fold change in body weight recovery at 25 to 100 mg/kg, po administered via gavage twice a day for 10 days relative to SASP; type: functional; details: dose 25-100 mg/kg; time 10 day
Mus musculus [4] = assay: Anti-colitis activity against DSS-induced C57BL/6 mouse model of colitis assessed as assessed as body weight recovery at 50 mg/kg, po administered via gavage DSS stimulation for 5 days followed by compound addition once daily for 10 days; type: functional, organism-based; details: time 10.0 day
Mus musculus [5] = assay: Anti-colitis activity against DSS-induced colitis in C57BL/6 mouse model assessed as fold decrease in disease activity index at 50 mg/kg, po administered via gavage twice daily for 10 days relative to control; type: functional; details: time 10 day
Mus musculus [6] = assay: Antiinflammatory activity in DSS-induced C57BL/6 mouse model of colitis assessed as increase in IL-10 level 25 to 100 mg/kg, po administered via gavage twice a day for 10 days; type: functional, organism-based; details: dose 25-100 mg/kg, time 10.0 day
Mus musculus [7] = assay: Anti-colitis activity against DSS-induced colitis in C57BL/6 mouse model assessed as reduction colonic damage at 50 mg/kg, po administered via gavage twice a day for 10 days; type: functional, organism-based; details: time 10.0 day
Mus musculus [8] = assay: Anti-colitis activity against DSS-induced C57BL/6 mouse model of colitis assessed as increase in colon length at 50 mg/kg, po administered via gavage DSS stimulation for 5 days followed by compound addition once daily for 10 days; type: functional, organism-based; details: time 10.0 day
Mus musculus [9] = assay: Anti-colitis activity against DSS-induced C57BL/6 mouse model of colitis assessed as fold change in colon length at 25 to 100 mg/kg, po administered via gavage twice a day for 10 days relative to SASP; type: functional; details: dose 25-100 mg/kg; time 10 day
Mus musculus [10] = assay: Anti-colitis activity against DSS-induced colitis in C57BL/6 mouse model assessed as decrease in MPO level in colon at 50 mg/kg, po administered via gavage twice a day for 10 days; type: functional; parameters: scale not given: the % may be the effect or the level left; details: time 10 day
Mus musculus [11] = assay: Anti-colitis activity against DSS-induced colitis in C57BL/6 mouse model assessed as increase in colon length at 50 mg/kg, po administered via gavage twice a day for 10 days; type: functional, organism-based; details: time 10.0 day
Mus musculus [12] = assay: Anti-colitis activity against DSS-induced colitis in C57BL/6 mouse model assessed as body weight recovery at 50 mg/kg, po administered via gavage twice a day for 10 days; type: functional, organism-based; details: time 10.0 day
Mus musculus [13] = assay: Antiinflammatory activity in DSS-induced C57BL/6 mouse model of colitis assessed as decrease in […] level 25 to 100 mg/kg, po administered via gavage twice a day for 10 days; type: functional, organism-based; details: dose 25-100 mg/kg, time 10.0 day
Mus musculus [14] = assay: Anti-colitis activity against DSS-induced colitis in C57BL/6 mouse model assessed as increase in colon length at 25 mg/kg, po administered via gavage twice daily for 10 days; type: functional, organism-based; details: time 10.0 day
Mus musculus [15] = assay: Anti-colitis activity against DSS-induced C57BL/6 mouse model of colitis assessed as fold change in disease activity index at 25 to 100 mg/kg, po administered via gavage twice a day for 10 days relative to SASP; type: functional; details: dose 25-100 mg/kg; time 10 day
Mus musculus [16] = assay: Antiinflammatory activity in DSS-induced C57BL/6 mouse model of colitis assessed as decrease in TNF-alpha level 25 to 100 mg/kg, po administered via gavage twice a day for 10 days; type: functional, organism-based; details: dose 25-100 mg/kg, time 10.0 day

**Q.** With `O=C(O)c1cc(/N=N/c2ccc(S(=O)(=O)Nc3ccccn3)cc2)ccc1O` [SULFASALAZINE] as the compound, how does the Activity (Mus musculus [1]) read?
**A.** Its Activity is “Active”.

**Q.** What about the Activity (Mus musculus [2]) of the same compound?
**A.** The Activity was “Active”.

**Q.** And the “fold change (FC)” value (Mus musculus [3])?
**A.** Its value is 2.1.

**Q.** What about the Activity (Mus musculus [4]) of the same compound?
**A.** The Activity was “Active”.

**Q.** And the “fold change (FC)” value (Mus musculus [5])?
**A.** The value was 1.5.

**Q.** What about the Activity (Mus musculus [6]) of the same compound?
**A.** The Activity was “Active”.

**Q.** And the Activity (Mus musculus [7])?
**A.** The Activity was “Active”.

**Q.** What about the Activity (Mus musculus [8]) of the same compound?
**A.** Its Activity is “Active”.

**Q.** And the “fold change (FC)” value (Mus musculus [9])?
**A.** Its value is 1.2.

**Q.** And the Activity (Mus musculus [10])?
**A.** Its Activity is 27.3%.

**Q.** And the Activity (Mus musculus [11])?
**A.** Its Activity is “Active”.

**Q.** And the Activity (Mus musculus [12])?
**A.** Its Activity is “Active”.

**Q.** And the Activity (Mus musculus [13])?
**A.** The Activity was “Active”.

**Q.** What about the Activity (Mus musculus [14]) of the same compound?
**A.** Its Activity is “Active”.

**Q.** And the “fold change (FC)” value (Mus musculus [15])?
**A.** Its value is 2.3.

**Q.** What about the Activity (Mus musculus [16]) of the same compound?
**A.** Its Activity is “Active”.
